From ChEMBL document CHEMBL6092185, “Discovery of glycosidated glycyrrhetinic acid derivatives: Natural product-based soluble epoxide hydrolase inhibitors” (Eur J Med Chem, 2024)

Species on record: Mus musculus
Experiment: animal or person
Conditions: BALB/c, 4 h, read-out: INH

Question: How did the inhibition in vivo at 20 mg/kg turn out when CC1(C)[C@@H](O)CC[C@]2(C)[C@H]3C(=O)C=C4[C@@H]5C[C@@](C)(CNC(=O)NCC6CCOCC6)CC[C@]5(C)CC[C@@]4(C)[C@]3(C)CC[C@@H]12 was run?
Answer: Its inhibition in vivo at 20 mg/kg is 27.2%.

These compounds were tested against T1, Bifunctional epoxide hydrolase 2 (Mus musculus, UniProt P34914) (assay: Inhibition of C57BL/6J mouse cortex sEH using 14,15-EET as substrate preincubated for 15 mins followed by substrate addition measured after 2 hrs by UPLC-MS/MS analysis). Conditions: not given.
T1 sequence (P34914 whole entry): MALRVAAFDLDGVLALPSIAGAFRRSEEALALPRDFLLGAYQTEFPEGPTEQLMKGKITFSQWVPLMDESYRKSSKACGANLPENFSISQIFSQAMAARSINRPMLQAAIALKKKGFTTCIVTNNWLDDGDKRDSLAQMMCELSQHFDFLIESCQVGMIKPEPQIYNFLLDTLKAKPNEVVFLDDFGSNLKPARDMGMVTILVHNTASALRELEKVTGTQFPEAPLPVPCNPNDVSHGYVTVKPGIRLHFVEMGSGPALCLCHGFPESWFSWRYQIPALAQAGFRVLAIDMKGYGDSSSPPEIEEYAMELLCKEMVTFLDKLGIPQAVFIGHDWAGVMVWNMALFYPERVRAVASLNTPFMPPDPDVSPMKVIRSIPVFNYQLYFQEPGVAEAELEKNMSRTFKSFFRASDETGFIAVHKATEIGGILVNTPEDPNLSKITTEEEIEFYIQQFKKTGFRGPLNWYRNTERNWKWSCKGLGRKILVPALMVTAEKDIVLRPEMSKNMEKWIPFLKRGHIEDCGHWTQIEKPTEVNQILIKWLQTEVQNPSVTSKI

Question: With CC1(C)[C@@H](O)CC[C@]2(C)[C@H]3CC=C4[C@@H]5C[C@@](C)(CNC(=O)NCC6CCOCC6)CC[C@]5(C)CC[C@@]4(C)[C@]3(C)CC[C@@H]12 as the compound, how does the IC50 read?
Answer: Its IC50 is 10.3 nM.

Question: How did the IC50 turn out when CC1(C)[C@@H](O[C@H]2O[C@H](CO)[C@@H](O)[C@H](O)[C@H]2O)CC[C@]2(C)[C@H]3C(=O)C=C4[C@@H]5C[C@@](C)(CNC(=O)NCC6CCC(OC(F)(F)F)CC6)CC[C@]5(C)CC[C@@]4(C)[C@]3(C)CC[C@@H]12 (stereo partly specified) was run?
Answer: Its IC50 is 2270 nM.

Question: With CC1(C)[C@@H](O[C@@H]2O[C@H](CO)[C@@H](O)[C@H](O)[C@H]2O)CC[C@]2(C)[C@H]3C(=O)C=C4[C@@H]5C[C@@](C)(CNC(=O)NCC6CCC(OC(F)(F)F)CC6)CC[C@]5(C)CC[C@@]4(C)[C@]3(C)CC[C@@H]12 (stereo partly specified) as the compound, how does the IC50 read?
Answer: The IC50 was 2120 nM.

Question: Which IC50 does the source give for CC1(C)[C@@H](O)CC[C@]2(C)[C@H]3C(=O)C=C4[C@H]5C[C@@](C)(CNC(=O)NCc6ccc(S(N)(=O)=O)cc6)CC[C@]5(C)CC[C@@]4(C)[C@]3(C)CC[C@@H]12 here?
Answer: Its IC50 is 13 nM.

Question: Which IC50 does the source give for CC1(C)[C@@H](O)CC[C@]2(C)[C@H]3C(=O)C=C4[C@H]5C[C@@](C)(CNC(=O)NCc6ccc(S(C)(=O)=O)cc6)CC[C@]5(C)CC[C@@]4(C)[C@]3(C)CC[C@@H]12 here?
Answer: Its IC50 is 9.7 nM.

Question: CC1(C)C(=O)CC[C@]2(C)[C@H]3C(=O)C=C4[C@@H]5C[C@@](C)(CNC(=O)NCC6CCOCC6)CC[C@]5(C)CC[C@@]4(C)[C@]3(C)CC[C@@H]12 was tested. Which IC50 did it give?
Answer: The IC50 was 18.9 nM.

Question: How did the IC50 turn out when CC1(C)[C@@H](O[C@@H]2O[C@H](CO)[C@H](O)[C@H](O)[C@H]2O)CC[C@]2(C)[C@H]3C(=O)C=C4[C@H]5C[C@@](C)(CNC(=O)NCC6CCOCC6)CC[C@]5(C)CC[C@@]4(C)[C@]3(C)CC[C@@H]12 was run?
Answer: The IC50 was 542 nM.

Question: For CC1(C)[C@@H](O[C@@H]2OC[C@@H](O)[C@@H](O)[C@@H]2O)CC[C@]2(C)[C@H]3C(=O)C=C4[C@H]5C[C@@](C)(CNC(=O)NCC6CCOCC6)CC[C@]5(C)CC[C@@]4(C)[C@]3(C)CC[C@@H]12, which IC50 is on record?
Answer: Its IC50 is 114 nM.

Question: Which IC50 does the source give for CCC(=O)N1CCC(CNC(=O)NC[C@@]2(C)CC[C@]3(C)CC[C@]4(C)C(=CC(=O)[C@@H]5[C@@]6(C)CC[C@H](O[C@H]7O[C@H](CO)[C@@H](O)[C@H](O)[C@@H]7O)C(C)(C)[C@@H]6CC[C@]54C)[C@H]3C2)CC1 here?
Answer: The IC50 was 151 nM.

Question: With CC1(C)[C@@H](O[C@H]2O[C@H](CO)[C@@H](O)[C@H](O)[C@H]2O)CC[C@]2(C)[C@H]3C(=O)C=C4[C@H]5C[C@@](C)(CNC(=O)NCc6ccc(OC(F)(F)F)cc6)CC[C@]5(C)CC[C@@]4(C)[C@]3(C)CC[C@@H]12 as the compound, how does the IC50 read?
Answer: The IC50 was 5630 nM.

Question: With CC1(C)[C@@H](O)CC[C@]2(C)[C@H]3C(=O)C=C4[C@H]5C[C@@](C)(CNC(=O)NCc6ccc(OC(F)(F)F)cc6)CC[C@]5(C)CC[C@@]4(C)[C@]3(C)CC[C@@H]12 as the compound, how does the IC50 read?
Answer: Its IC50 is 16.9 nM.

Question: CC1(C)[C@@H](O)CC[C@]2(C)[C@H]3C(=O)C=C4[C@@H]5C[C@@](C)(CNC(=O)NCC6CCOCC6)CC[C@]5(C)CC[C@@]4(C)[C@]3(C)CC[C@@H]12 was tested. Which IC50 did it give?
Answer: Its IC50 is 7.7 nM.

Question: Which IC50 does the source give for CCC(=O)N1CCC(CNC(=O)NC[C@@]2(C)CC[C@]3(C)CC[C@]4(C)C(=CC(=O)[C@@H]5[C@@]6(C)CC[C@H](O[C@@H]7O[C@H](CO)[C@@H](O)[C@H](O)[C@@H]7O)C(C)(C)[C@@H]6CC[C@]54C)[C@@H]3C2)CC1 here?
Answer: The IC50 was 174 nM.

Question: How did the IC50 turn out when CC1(C)[C@@H](O[C@@H]2OC[C@@H](O)[C@H](O)[C@H]2O)CC[C@]2(C)[C@H]3C(=O)C=C4[C@H]5C[C@@](C)(CNC(=O)NCC6CCOCC6)CC[C@]5(C)CC[C@@]4(C)[C@]3(C)CC[C@@H]12 was run?
Answer: Its IC50 is 435 nM.

Question: For CC1(C)[C@@H](O[C@@H]2O[C@H](CO)[C@@H](O)[C@H](O)[C@@H]2O)CC[C@]2(C)[C@H]3C(=O)C=C4[C@H]5C[C@@](C)(CNC(=O)NCC6CCOCC6)CC[C@]5(C)CC[C@@]4(C)[C@]3(C)CC[C@@H]12, which IC50 is on record?
Answer: Its IC50 is 160 nM.

Question: How did the IC50 turn out when CC1(C)[C@@H](O[C@H]2O[C@H](CO)[C@H](O)[C@H](O)[C@H]2O)CC[C@]2(C)[C@H]3C(=O)C=C4[C@H]5C[C@@](C)(CNC(=O)NCC6CCOCC6)CC[C@]5(C)CC[C@@]4(C)[C@]3(C)CC[C@@H]12 was run?
Answer: Its IC50 is 310 nM.

Question: CC(C)CNC(=O)NC[C@@]1(C)CC[C@]2(C)CC[C@]3(C)C(=CC(=O)[C@@H]4[C@@]5(C)CC[C@H](O)C(C)(C)[C@@H]5CC[C@]43C)[C@H]2C1 was tested. Which IC50 did it give?
Answer: Its IC50 is 13.4 nM.

Question: Which IC50 does the source give for CC1(C)C(=O)CC[C@]2(C)[C@H]3C(=O)C=C4[C@H]5C[C@@](C)(CNC(=O)NCC6CCOCC6)CC[C@]5(C)CC[C@@]4(C)[C@]3(C)CC[C@@H]12 here?
Answer: Its IC50 is 13.4 nM.

Question: CCC(=O)N1CCC(CNC(=O)NC[C@@]2(C)CC[C@]3(C)CC[C@]4(C)C(=CC(=O)[C@@H]5[C@@]6(C)CC[C@H](O)C(C)(C)[C@@H]6CC[C@]54C)[C@@H]3C2)CC1 was tested. Which IC50 did it give?
Answer: The IC50 was 5.6 nM.

Question: How did the IC50 turn out when CC1(C)[C@@H](O[C@H]2OC[C@@H](O)[C@H](O)[C@H]2O)CC[C@]2(C)[C@H]3C(=O)C=C4[C@H]5C[C@@](C)(CNC(=O)NCC6CCOCC6)CC[C@]5(C)CC[C@@]4(C)[C@]3(C)CC[C@@H]12 was run?
Answer: Its IC50 is 450 nM.

Question: CC(C)CNC(=O)NC[C@@]1(C)CC[C@]2(C)CC[C@]3(C)C(=CC[C@@H]4[C@@]5(C)CC[C@H](O)C(C)(C)[C@@H]5CC[C@]43C)[C@@H]2C1 was tested. Which IC50 did it give?
Answer: The IC50 was 6.6 nM.

Question: Which IC50 does the source give for CC1(C)[C@@H](O[C@H]2O[C@H](CO)[C@@H](O)[C@H](O)[C@H]2O)CC[C@]2(C)[C@H]3C(=O)C=C4[C@@H]5C[C@@](C)(CNC(=O)NCC6CCOCC6)CC[C@]5(C)CC[C@@]4(C)[C@]3(C)CC[C@@H]12 here?
Answer: Its IC50 is 387 nM.

Question: For CC1(C)[C@@H](O[C@@H]2O[C@H](CO)[C@@H](O)[C@H](O)[C@H]2O)CC[C@]2(C)[C@H]3C(=O)C=C4[C@@H]5C[C@@](C)(CNC(=O)NCC6CCOCC6)CC[C@]5(C)CC[C@@]4(C)[C@]3(C)CC[C@@H]12, which IC50 is on record?
Answer: Its IC50 is 446 nM.

Question: With CC1(C)[C@@H](O)CC[C@]2(C)[C@H]3C(=O)C=C4[C@@H]5C[C@@](C)(CNC(=O)NCc6ccc(OC(F)(F)F)cc6)CC[C@]5(C)CC[C@@]4(C)[C@]3(C)CC[C@@H]12 as the compound, how does the IC50 read?
Answer: The IC50 was 8.6 nM.

Question: Which IC50 does the source give for CC(C)CNC(=O)NC[C@@]1(C)CC[C@]2(C)CC[C@]3(C)C(=CC(=O)[C@@H]4[C@@]5(C)CC[C@H](O)C(C)(C)[C@@H]5CC[C@]43C)[C@@H]2C1 here?
Answer: Its IC50 is 20.5 nM.

Question: How did the IC50 turn out when CC1(C)[C@@H](O)CC[C@]2(C)[C@H]3C(=O)C=C4[C@@H]5C[C@@](C)(CNC(=O)NCc6ccc(S(C)(=O)=O)cc6)CC[C@]5(C)CC[C@@]4(C)[C@]3(C)CC[C@@H]12 was run?
Answer: The IC50 was 15.9 nM.

Question: With CC1(C)[C@@H](O)CC[C@]2(C)[C@H]3C(=O)C=C4[C@@H]5C[C@@](C)(CNC(=O)NCc6ccc(S(N)(=O)=O)cc6)CC[C@]5(C)CC[C@@]4(C)[C@]3(C)CC[C@@H]12 as the compound, how does the IC50 read?
Answer: The IC50 was 19.8 nM.

Question: With CCC(=O)N1CCC(CNC(=O)NC[C@@]2(C)CC[C@]3(C)CC[C@]4(C)C(=CC(=O)[C@@H]5[C@@]6(C)CC[C@H](O[C@@H]7O[C@H](CO)[C@@H](O)[C@H](O)[C@@H]7O)C(C)(C)[C@@H]6CC[C@]54C)[C@H]3C2)CC1 as the compound, how does the IC50 read?
Answer: The IC50 was 152 nM.

Question: With CC1(C)[C@@H](O[C@@H]2O[C@H](CO)[C@@H](O)[C@H](O)[C@H]2O)CC[C@]2(C)[C@H]3C(=O)C=C4[C@H]5C[C@@](C)(CNC(=O)NCc6ccc(OC(F)(F)F)cc6)CC[C@]5(C)CC[C@@]4(C)[C@]3(C)CC[C@@H]12 as the compound, how does the IC50 read?
Answer: Its IC50 is 3720 nM.

Question: With CCC(=O)N1CCC(CNC(=O)NC[C@@]2(C)CC[C@]3(C)CC[C@]4(C)C(=CC(=O)[C@@H]5[C@@]6(C)CC[C@H](O)C(C)(C)[C@@H]6CC[C@]54C)[C@H]3C2)CC1 as the compound, how does the IC50 read?
Answer: The IC50 was 9.9 nM.
